Data taken from publication PMC10609273, “Radiosynthesis and Early Evaluation of a Positron Emission Tomography Imaging Probe [^18F]AGAL Targeting Alpha-Galactosidase A Enzyme for Fabry Disease” (Molecules, 2023).
pIC50: −log10 of the molar value.

Assays:
[1] = Plasma stability study, human; assay type: in vitro ADME
Experimental: Briefly, plasma stability was assessed by incubating compounds in the presence of human (pooled) and mouse (pooled) plasma (Bioreclamation, Westbury, NY, USA). All chemicals and reagents including control compounds were purchased from commercial sources such as Sigma-Aldrich or Toronto Research Chemicals. Plasma incubations were conducted by placing plasma (95 μL) in a 96-well microtiter plate and warming to 37 °C for 5 min. The reaction was initiated with the addition of the test article (5 μL of 20 μM), totaling 100 μL in incubation volume. At 0, 15, 30, 60, and 120 min time points, the reactions were terminated with the addition of acetonitrile-containing carbutamide (as an internal standard). The terminated samples were then centrifuged at 2 °C to pellet the protein, and the supernatant was injected onto an LC–MS. The test article was monitored for loss over time and the t1/2 was determined.

[2] = LogD determination, miniaturized shake flask method; assay type: physicochemical; details: octanol/buffer (1:1); octanol/buffer pH 7.4 (1:1), 66.6 μM
Experimental: The distribution of AGAL between an organic solvent (octanol) and aqueous buffer (pH 7.4) was tested using the miniaturized shake flask method in octanol/buffer (1:1). This was accomplished by spiking the test compound (prepared in DMSO) into pre-equilibrated octanol/buffer phases at a concentration of 66.6 μM followed by shaking at 880 rpm for 1 h. The concentration of the test compound in both phases was analyzed using LC–MS/MS.

[3] = In vitro liver microsomal metabolism study, human; assay type: in vitro ADME; details: human liver microsomes
Experimental: Metabolic stability was assessed by incubating compounds in the presence of human, rat, and mouse liver microsomal fractions (Xenotech, Kansas City, KS, USA). All chemicals and reagents, including control compounds, were purchased from commercial sources such as Sigma-Aldrich (St. Louis, MO, USA) or Toronto Research Chemicals (North York, ON, Canada). Liver microsomal incubations were conducted with 100 mM phosphate buffer, 0.5 mg/mL of liver microsomal protein, 2 mM NADPH, 2.5 mM UDPGA, 3 mM MgCl2, alamethicin, and 1 μM test article for a total incubation volume of 80 µL. All reagents except the liver microsomes were mixed together and aliquoted (60 μL) into 96-well plates. The reaction was initiated by adding the microsomes (20 μL). At 0, 3, 7, 12, 20, and 30 min time points, the reactions were terminated with the addition of acetonitrile-containing carbutamide (as an internal standard). The terminated samples were then centrifuged at 2 °C to pellet the protein and the supernatant was injected onto an LC–MS. The test article was monitored for loss over time and the t1/2 was determined. The calculated t1/2 was then used as described below to determine the Eh (hepatic extraction ratio) for both human and rat.
The intrinsic clearance (CLint), hepatic clearance (CLh), and hepatic extraction ratio (Eh) were calculated using the equations below. CLint = (0.693/t1/2 in vitro) × (mL incubation volume/mg microsomal protein) × (X mg of microsomal protein/gram of liver) × (Y g of liver/kg of body weight)(1) CLh = Q × CLint/Q + CLint(2) Eh = CLh/Q(3) where: • CLint = intrinsic clearance (calculated from microsomal incubations) • X = 40 for human, 41.5 for rat and 45 for mouse • Y = 21.4 for human, 40 for rat and 50 for mouse • t1/2 = half-life • CLh = hepatic clearance • Q = liver blood flow rate = 1.24 L/h/kg for human, 4.8 L/h/kg for rat, and 5.4 L/h/kg for mouse • Eh = hepatic extraction ratio • CLh = hepatic clearance

CYP2D6 = molecular target: T1, CYP2D6 (Homo sapiens, UniProt P10635); assay: Reversible CYP inhibition in pooled HLMs; assay type: in vitro ADME; details: 30 µM compound, substrate dextromethorphan
T1 construct: from tissue; host or cells: pooled human liver microsomes (n = 200)
Experimental: (§1) All chemicals and reagents including control compounds were purchased from commercial sources such as Sigma-Aldrich or Toronto Research Chemicals. The test article was tested for reversible inhibition of CYPs in human liver microsomes (HLM) (0.2 mg/mL protein) at a concentration range of 0–30 μM. Each condition was incubated in duplicate. The test article (0–30 μM), NADPH, and the CYP-selective probe substrate were incubated in a 96-well plate at 37 °C in 0.1 M potassium phosphate buffer, pH 7.4. The reactions were initiated by adding the HLMs. The total reaction volume was 100 μL.
(§2) After the incubation period (10 min for CYP1A2, 2B6, and 2C9; 15 min for CYP2C19; and 4 min for CYP2C8 and 2D6 to accommodate linear kinetic conditions) at 37 °C, the reactions were terminated by the addition of 100 μL of ice-cold acetonitrile-containing carbutamide as an IS, then centrifuged at 2500× g for 10 min at 2 °C. A 150 μL aliquot of supernatant for each CYP assay, except for CYP1A2, was then transferred to a new plate for analysis. For CYP1A2, 80 μL of supernatant was transferred to the plate and further diluted with 80 μL of water before analysis. All samples were analyzed with liquid chromatography with tandem mass spectrometry (LC–MS/MS).

CYP2B6 = molecular target: T2, CYP2B6 (Homo sapiens, UniProt P20813); assay: Reversible CYP inhibition in pooled HLMs; assay type: in vitro ADME; details: 30 µM compound, substrate bupropion
T2 construct: from tissue; host or cells: pooled human liver microsomes (n = 200)
T2 sequence (P20813 1-491): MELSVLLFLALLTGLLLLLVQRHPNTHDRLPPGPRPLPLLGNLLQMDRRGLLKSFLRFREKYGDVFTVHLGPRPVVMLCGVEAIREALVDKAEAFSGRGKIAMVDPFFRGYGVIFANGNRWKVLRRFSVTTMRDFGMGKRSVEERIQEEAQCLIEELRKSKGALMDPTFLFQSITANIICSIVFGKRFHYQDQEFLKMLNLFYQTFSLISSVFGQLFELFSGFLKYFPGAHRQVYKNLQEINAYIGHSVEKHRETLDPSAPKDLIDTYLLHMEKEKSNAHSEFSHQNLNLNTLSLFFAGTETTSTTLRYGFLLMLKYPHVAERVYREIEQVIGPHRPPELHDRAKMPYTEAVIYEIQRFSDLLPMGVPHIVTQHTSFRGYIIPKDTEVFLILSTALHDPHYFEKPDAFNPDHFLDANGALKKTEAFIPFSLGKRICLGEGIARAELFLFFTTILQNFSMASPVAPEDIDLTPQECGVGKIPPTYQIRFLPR
Experimental: as §1, §2

[4] = molecular target: 167 protein targets (human and rodent recombinant receptors and binding sites); assay: Eurofins SpectrumScreen selectivity panel
Experimental: The AGAL molecule had ≥50% inhibition of specific binding or activity with IC50 values > 10 µM for a range of human and rodent recombinant receptors and binding sites (e.g., calcium and potassium channels and various subtypes of adrenergic, bombesin, calcitonin, serotonin, acetylcholine, histamine, and glutamate receptors or transporters).
The AGAL molecule was tested for estimated inhibition potency (IC50) and/or inhibition constants (Ki) on 167 protein targets (Eurofins SpectrumScreen).

T1 sequence (P10635 whole entry): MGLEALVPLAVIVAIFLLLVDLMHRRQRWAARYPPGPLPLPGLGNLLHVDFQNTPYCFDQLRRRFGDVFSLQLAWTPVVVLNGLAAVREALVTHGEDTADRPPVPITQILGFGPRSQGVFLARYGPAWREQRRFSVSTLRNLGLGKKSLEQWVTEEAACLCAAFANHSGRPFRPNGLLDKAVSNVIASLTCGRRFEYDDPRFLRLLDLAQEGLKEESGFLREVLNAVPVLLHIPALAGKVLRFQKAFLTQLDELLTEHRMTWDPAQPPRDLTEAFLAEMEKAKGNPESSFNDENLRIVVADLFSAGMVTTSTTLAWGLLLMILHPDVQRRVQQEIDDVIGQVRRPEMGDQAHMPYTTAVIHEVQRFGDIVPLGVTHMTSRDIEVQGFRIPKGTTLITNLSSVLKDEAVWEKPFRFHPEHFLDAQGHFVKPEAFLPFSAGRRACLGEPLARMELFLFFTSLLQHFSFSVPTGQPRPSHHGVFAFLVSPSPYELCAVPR

- parent remaining ([1]; 30 min post-incubation): 93%
- half-life at 1 µM ([1]; pooled plasma, 37 °C, read-out: Plasma Half-Life, t1/2): 3.47 h
- logD at 1 h [2]: -0.43
- CLh [3]: <4.68 mL/min/kg
- Eh (hepatic extraction ratio) [3]: <0.226
- microsomal stability, clearance in words [3]: minimally cleared
- CLint scaled at 1 µM ([3]; 1 μM, NADPH + UDPGA): < 6.05 mL/min/kg
- reversible inhibition of CYP2D6 activity (CYP2D6): no significant loss of CYP activity
- reversible inhibition of CYP2B6 activity (CYP2B6): no significant loss of CYP activity
- pIC50 ([4]; range of human and rodent recombinant receptors and binding sites, read-out: IC50 values for off-target receptors and binding sites): < 5.00
- inhibition of specific binding or activity ([4]; selectivity panel, >160 proteins): ≥ 50%
Compound: O=C(CCCCCCCn1cc(CCCF)nn1)N1[C@@H]2[C@H](O)[C@@H](O)[C@@H](O)[C@@H](CO)[C@@H]21 [AGAL]
